Measured values as given in patent publication US10800789B2, “Antiviral compounds” (Gilead Pharmasset LLC, priority 2012, dated 2020).
Where two headings read alike, the source gives them in different places.

Assays:
[1] = system: NS5A chimeric genotype 1b Con1 replicon with genotype 4a ED43 strain NS5A gene; assay: Replicon assay, genotype 4a NS5A chimera; type: cell-based, HCV; conditions: Hepatitis C virus
[2] = system: stable HCV 2a JFH-1 Rluc replicon cells (L31 present in NS5A); assay: Renilla luciferase HCV replicon reporter assay, genotype 2a JFH-1; type: cell-based; conditions: Hepatitis C virus
Procedure: (§1) Evaluation of Cell-Based Anti-HCV Activity:
(§2) Antiviral potency (EC50) was determined using a Renilla luciferase (RLuc)-based HCV replicon reporter assay. To perform the assay for genotype 1 and 2a JFH-1, stable HCV 1a RLuc replicon cells (harboring a dicistronic genotype 1a H77 replicon that encodes a RLuc reporter), stable HCV 1b RLuc replicon cells (harboring a dicistronic genotype 1b Con1 replicon that encodes a RLuc reporter), or stable HCV 2a JFH-1 Rluc replicon cells (harboring a dicistronic genotype 2a JFH-1 replicon that encodes a RLuc reporter; with L31 present in NS5A) were dispensed into 384-well plates for EC50 assays. To perform the assay for genotype 2a (with M31 present in NS5A) or 2b, NS5A chimeric genotype 2a JFH-1 replicons that encodes a RLuc-Neo reporter and either genotype 2a J6 strain NS5A gene or genotype 2b MD2b-1 strain NS5A gene (both with M31 present) respectively, were either transiently transfected (t) into Huh-Lunet cells or were established as stably replicating replicon cells (s) is provided. Either cells were dispensed into 384-well plates for EC50 assays. To perform the assay for genotype 3 and 4, NS5A chimeric genotype 1b Con1 replicons that encodes a Pi-RLuc reporter and either genotype 3a S52 strain NS5A gene or genotype 4a ED43 strain NS5A gene respectively, were transiently transfected (t) into Huh-Lunet cells, which were subsequently dispensed into 384-well plates. Compounds were dissolved in DMSO at a concentration of 10 mM and diluted in DMSO either manually or using an automated pipeting instrument. Serially 3-fold diluted compounds were either manually mixed with cell culture media and added to the seeded cells or directly added to the cells using an automated instrument. DMSO was used as a negative (solvent; no inhibition) control, and the protease inhibitor ITMN-191 was included at a concentration>100×EC50 as a positive control. 72 hours later, cells were lysed and Renilla luciferase activity quantified as recommended by the manufacturer (Promega-Madison, Wis.). Non-linear regression was performed to calculate EC50 values.

[3] = system: NS5A chimeric genotype 2a JFH-1 replicon with genotype 2b MD2b-1 strain NS5A gene (M31 present); assay: Replicon assay, genotype 2b NS5A chimera; type: cell-based, HCV; conditions: Hepatitis C virus
Procedure: as §1, §2

[4] = system: NS5A chimeric genotype 1b Con1 replicon with genotype 3a S52 strain NS5A gene; assay: Replicon assay, genotype 3a NS5A chimera; type: cell-based, HCV; conditions: Hepatitis C virus
[5] = system: stable HCV 1b RLuc replicon cells (dicistronic genotype 1b Con1 replicon); assay: Renilla luciferase HCV replicon reporter assay, genotype 1b; type: cell-based; conditions: Hepatitis C virus, 72 h, stable 1b Con1 RLuc replicon cells, 72 hours; read-out: 1b
Procedure: as §1, §2

[6] = system: stable HCV 1a RLuc replicon cells (dicistronic genotype 1a H77 replicon); assay: Renilla luciferase HCV replicon reporter assay, genotype 1a; type: cell-based; conditions: Hepatitis C virus, 72 h, stable 1a H77 RLuc replicon cells
Procedure: as §1, §2

[7] = system: NS5A chimeric genotype 2a JFH-1 replicon with genotype 2a J6 strain NS5A gene (M31 present); assay: Replicon assay, genotype 2a J6 NS5A chimera; type: cell-based, HCV; conditions: Hepatitis C virus, read-out: 2a J6 (t) (nM), genotype 2a J6 NS5A chimeric replicon (M31), transiently transfected (t) into Huh-Lunet cells
Procedure: as §1, §2

[8] = read-out: 4a (s) (nM), genotype 4a NS5A chimeric replicon, stable replicon cells (s)
[9] = read-out: 4a (s), (s), activity range
[10] = read-out: 2a JFH (nM), genotype 2a JFH-1 replicon (L31 in NS5A), stable cells
[11] = read-out: 2a JFH, stable 2a JFH-1 Rluc replicon cells, L31 in NS5A, activity range
[12] = 2BS, read-out: 2b (s), stably replicating replicon cells (s), activity range
[13] = read-out: 2b (s) (nM), genotype 2b MD2b-1 NS5A chimeric replicon (M31), stably replicating replicon cells (s)
[14] = read-out: 3a (s) (nM), genotype 3a NS5A chimeric replicon, stable replicon cells (s)
[15] = read-out: 3a (s), (s), activity range

Work on CC[C@H]1CC[C@@H](c2ncc(-c3ccc4c(c3)COc3cc5c(ccc6nc([C@@H]7C[C@H](COC)CN7C(=O)[C@@H](NC(=O)OC)C(C)C)[nH]c65)cc3-4)[nH]2)N1C(=O)[C@@H](NC(=O)OC)C(C)C [ER, Methyl {(2S)-1-[(2S,4S)-2-(9-{2-[(2S,5S)-5-ethyl-1-{(2S)-2-[(methoxycarbonyl)amino]-3-methylbutanoyl}pyrrolidin-2-yl]-1H-imidazol-5-yl}-1,11-dihydroisochromeno[4′,3′:6,7]naphtho[1,2-d]imidazol-2-yl)-4-(methoxymethyl)pyrrolidin-1-yl]-3-methyl-1-oxobutan-2-yl}carbamate] yielded an EC50 [1, 8] of 0.011 nM, an EC50 [1, 9] of under 0.1 nM and an EC50 [2, 10] of 0.021 nM. It also gave an EC50 [2, 11] of under 0.1 nM, an EC50 [3, 12] of 0.1 to 0.999 nM and an EC50 [3, 13] of 0.852 nM. The EC50 [4, 14] was 2.8 nM, the EC50 [4, 15] was 1 to 44 nM and the EC50 [5] was 0.02 nM. It also gave an EC50 [6] of 0.016 nM and an EC50 ([6]; activity range) of under 0.1 nM.
CC[C@H](C)[C@H](NC(=O)OC)C(=O)N1CCC[C@H]1c1ncc(-c2ccc3c(c2)COc2cc4c(ccc5nc([C@@H]6CCCN6C(=O)[C@@H](NC(=O)OC)[C@@H](C)CC)[nH]c54)cc2-3)[nH]1 [HH] gave an EC50 [1, 8] of 0.011 nM, an EC50 [2, 10] of 0.012 nM and an EC50 [3, 13] of 2.25 nM. The EC50 [4, 14] was 0.06 nM and the EC50 [7] was 3 nM.
In the case of COC[C@H]1C[C@@H](c2ncc(-c3ccc4c(c3)COc3cc5c(ccc6nc([C@@H]7CC[C@H](C)N7C(=O)[C@@H](NC(=O)OC)C(C)C)[nH]c65)cc3-4)[nH]2)N(C(=O)[C@@H](NC(=O)OC)C2CCOCC2)C1 [GI, Methyl [(2S)-1-{(2S,4S)-2-[9-(2-{(2S,5S)-1-[(2S)-2-[(methoxycarbonyl)amino]-2-(tetrahydro-2H-pyran-4-yl)acetyl]-4-(methoxymethyl)pyrrolidin-2-yl}-1H-imidazol-5-yl)-1,11-dihydroisochromeno[4′,3′:6,7]naphtho[1,2-d]imidazol-2-yl]-5-methylpyrrolidin-1-yl}-3-methyl-1-oxobutan-2-yl]carbamate], the EC50 [1, 8] is reported as 0.022 nM, the EC50 [1, 9] is reported as under 0.1 nM and the EC50 [2, 10] is reported as 0.025 nM. It also gave an EC50 [2, 11] of under 0.1 nM, an EC50 [3, 12] of 0.1 to 0.999 nM and an EC50 [3, 13] of 0.193 nM. For the same compound, the EC50 [4, 14] was 0.126 nM, the EC50 [4, 15] was 0.1 to 0.999 nM and the EC50 [5] was 0.064 nM. The EC50 [6] was 0.055 nM and the EC50 ([6]; activity range) was under 0.1 nM.
In the case of CC[C@H]1CC[C@@H](c2ncc(-c3ccc4c(c3)COc3cc5c(ccc6nc([C@@H]7CC[C@H](C)N7C(=O)[C@@H](NC(=O)OC)C7CCOCC7)[nH]c65)cc3-4)[nH]2)N1C(=O)[C@@H](NC(=O)OC)[C@@H](C)CC [IM], the EC50 [1, 8] is reported as 0.043 nM, the EC50 [1, 9] is reported as under 0.1 nM and the EC50 [2, 10] is reported as 0.016 nM. For the same compound, the EC50 [2, 11] was under 0.1 nM, the EC50 [3, 12] was 0.1 to 0.999 nM and the EC50 [3, 13] was 0.212 nM. For the same compound, the EC50 [4, 14] was 0.15 nM, the EC50 [4, 15] was 0.1 to 0.999 nM and the EC50 [5] was 0.04 nM. For the same compound, the EC50 [6] was 0.033 nM and the EC50 ([6]; activity range) was under 0.1 nM.
Work on CC[C@H]1CC[C@@H](c2ncc(-c3ccc4c(c3)COc3cc5c(ccc6nc([C@@H]7CC[C@H](C)N7C(=O)[C@@H](NC(=O)OC)[C@@H](C)CC)[nH]c65)cc3-4)[nH]2)N1C(=O)C(NC(=O)OC)C1CCOCC1 (stereo partly shown) [IJ] yielded an EC50 [1, 8] of 0.036 nM, an EC50 [1, 9] of under 0.1 nM and an EC50 [2, 10] of 0.012 nM. It also gave an EC50 [2, 11] of under 0.1 nM, an EC50 [3, 12] of 0.1 to 0.999 nM and an EC50 [3, 13] of 0.212 nM. The EC50 [4, 14] was 0.127 nM, the EC50 [4, 15] was 0.1 to 0.999 nM and the EC50 [5] was 0.029 nM. It also gave an EC50 [6] of 0.027 nM and an EC50 ([6]; activity range) of under 0.1 nM.
Work on CC[C@H](C)[C@H](NC(=O)OC)C(=O)N1C[C@@H](COC)C[C@H]1c1ncc(-c2ccc3c(c2)COc2cc4c(ccc5nc([C@@H]6CC[C@H](C)N6C(=O)[C@@H](NC(=O)OC)[C@@H](C)OC)[nH]c54)cc2-3)[nH]1 [FT, Methyl {(2S,3S)-1-[(2S,4S)-2-(5-{2-[(2S,5S)-1-{(2S,3R)-3-methoxy-2-[(methoxycarbonyl)amino]butanoyl}-5-methylpyrrolidin-2-yl]-1,11-dihydroisochromeno[4′,3′:6,7]naphtho[1,2-d]imidazol-9-yl}-1H-imidazol-2-yl)-4-(methoxymethyl)pyrrolidin-1-yl]-3-methyl-1-oxopentan-2-yl}carbamate] yielded an EC50 [1, 8] of 0.028 nM, an EC50 [1, 9] of under 0.1 nM and an EC50 [2, 10] of 0.029 nM. It also gave an EC50 [2, 11] of under 0.1 nM, an EC50 [3, 12] of 0.1 to 0.999 nM and an EC50 [3, 13] of 0.395 nM. It also gave an EC50 [4, 14] of 0.283 nM, an EC50 [4, 15] of 0.1 to 0.999 nM and an EC50 [5] of 0.045 nM. It also gave an EC50 [6] of 0.04 nM and an EC50 ([6]; activity range) of under 0.1 nM.
Compound CC[C@H](C)[C@H](NC(=O)OC)C(=O)N1[C@@H](C)CC[C@H]1c1nc2ccc3cc4c(cc3c2[nH]1)OCc1cc(-c2cnc([C@@H]3C[C@H](COC)CN3C(=O)[C@@H](NC(=O)OC)C(C)C)[nH]2)ccc1-4 [FS, Methyl {(2S,3S)-1-[(2S,5S)-2-(9-{2-[(2S,4S)-1-{(2S)-2-[(methoxycarbonyl)amino]-3-methylbutanoyl}-4-(methoxymethyl)pyrrolidin-2-yl]-1H-imidazol-5-yl}-1,11-dihydroisochromeno[4′,3′:6,7]naphtho[1,2-d]imidazol-2-yl)-5-methylpyrrolidin-1-yl]-3-methyl-1-oxopentan-2-yl}carbamate] has an EC50 [1, 8] of 0.017 nM, an EC50 [1, 9] of under 0.1 nM and an EC50 [2, 10] of 0.025 nM. For the same compound, the EC50 [2, 11] was under 0.1 nM, the EC50 [3, 12] was 0.1 to 0.999 nM and the EC50 [3, 13] was 0.784 nM. For the same compound, the EC50 [4, 14] was 0.411 nM, the EC50 [4, 15] was 0.1 to 0.999 nM and the EC50 [5] was 0.025 nM. It also gave an EC50 [6] of 0.024 nM and an EC50 ([6]; activity range) of under 0.1 nM.
For CC[C@H]1CC[C@@H](c2ncc(-c3ccc4c(c3)COc3cc5c(ccc6nc([C@@H]7CC[C@H](C)N7C(=O)[C@@H](NC(=O)OC)[C@@H](C)OC)[nH]c65)cc3-4)[nH]2)N1C(=O)[C@@H](NC(=O)OC)C(C)C [EQ, methyl{(2S,3R)-1-[(2S,5S)-2-(9-{2-[(2S,5S)-5-ethyl-1-{(2S)-2-[(methoxycarbonyl)amino]-3-methylbutanoyl}pyrrolidin-2-yl]-1H-imidazol-5-yl}-1,11-dihydroisochromeno[4′,3′:6,7]naphtho[1,2-d]imidazol-2-yl)-5-methylpyrrolidin-1-yl]-3-methoxy-1-oxobutan-2-yl}carbamate], the EC50 [1, 8] was 0.025 nM, the EC50 [1, 9] was under 0.1 nM and the EC50 [2, 10] was 0.022 nM. It also gave an EC50 [2, 11] of under 0.1 nM, an EC50 [3, 12] of 0.1 to 0.999 nM and an EC50 [3, 13] of 0.279 nM. For the same compound, the EC50 [4, 14] was 0.475 nM, the EC50 [4, 15] was 0.1 to 0.999 nM and the EC50 [5] was 0.036 nM. For the same compound, the EC50 [6] was 0.034 nM and the EC50 ([6]; activity range) was under 0.1 nM.
Work on COC(=O)N[C@H](C(=O)N1C[C@@H](C)C[C@H]1c1ncc(-c2ccc3c(c2)COc2cc4c(ccc5nc([C@@H]6CC[C@H](C)N6C(=O)[C@@H](NC(=O)OC)[C@@H](C)OC)[nH]c54)cc2-3)[nH]1)C(C)C [GH, Methyl {(2S)-1-[(2S,4S)-2-(5-{2-[(2S,5S)-1-{(2S,3R)-3-methoxy-2-[(methoxycarbonyl)amino]butanoyl}-5-methylpyrrolidin-2-yl]-1,11-dihydroisochromeno[4′,3′:6,7]naphtho[1,2-d]imidazol-9-yl}-1H-imidazol-2-yl)-4-methylpyrrolidin-1-yl]-3-methyl-1-oxobutan-2-yl}carbamate] yielded an EC50 [2, 10] of 0.011 nM, an EC50 [2, 11] of under 0.1 nM and an EC50 [3, 12] of 0.1 to 0.999 nM. The EC50 [3, 13] was 0.247 nM, the EC50 [4, 14] was 0.07 nM and the EC50 [4, 15] was under 0.1 nM. For the same compound, the EC50 [5] was 0.027 nM, the EC50 [6] was 0.02 nM and the EC50 ([6]; activity range) was under 0.1 nM.
